Columns and labels:
Human PDE7 = biological target: T1, Human PDE7 (Homo sapiens, UniProt Q13946); test: PDE7 enzymatic test ([3H]-cAMP hydrolysis, TLC on PEI cellulose); assay type: biochemical; details: human PDE7 partially purified from HUT-78; cAMP concentration about 4 times the Km; 10 μM rolipram present
T1 construct: Human PDE7 was partially purified from the cell line HUT-78; endogenous in cells; host or cells: HUT-78 (human T-cell line), partially purified enzyme preparation
Experimental: (§1) The capacity of the compounds of formula (I) to inhibit PDE7 is measured by means of an enzymatic test based on separating radioactive cAMP (substrate of PDE7) from radioactive 5′-AMP (product of the enzymatic reaction) by thin-layer chromatography on polyethyleneimine (PEI) cellulose, after stopping the enzymatic reaction. The 5′-AMP is quantitatively extracted from the PEI cellulose and its radioactivity is measured using a liquid scintillation counter.
The inhibitory activity of the compounds of formula (I) on PDE7 is represented by the inhibition constant IC50, defined as the concentration of test compound (inhibitor) in the trial that can reduce the enzymatic activity of PDE7 by 50%. The lower the IC50 values, the greater the inhibitory power of the compounds.
Human PDE7 was partially purified from the cell line HUT-78 by following a method similar to that described by Bloom and Beavo (Proc. Natl. Acad. Sci. USA, (1996) 93, 14188-14192). The enzyme preparation obtained is stored at −80° C. in a buffer containing 20 mM of Tris-HCl (pH 7.0), 5 mM of MgCl2, 4 mM of EDTA, 1 mM of dithiothreitol and 20% glycerol. […] The Michaelis constant (Km) of PDE7 for cAMP, measured using the radiochemical test described hereinbelow, is 21 nM.
The compounds of formula (I) to be tested as PDE7 inhibitors are dissolved in DMSO to a concentration of 10 mM. These solutions are then serially diluted in DMSO to obtain solutions of desired concentrations. These solutions are then diluted 20-fold in the test buffer to give solutions containing 5% DMSO. These solutions are finally diluted 5-fold in the enzymatic test.
The test is performed in 1.5-ml Eppendorf tubes containing 40 mM of Tris-HCl (pH 7.5), 15 mM of MgCl2, 1 mM of EGTA, 0.5 mg/ml of bovine serum albumin, 0.25 μCi of [^3H]-cAMP (corresponding to a cAMP concentration of between 60 and 100 nM), 10 μM of rolipram and PDE7 in a final volume of 100 μl. The test is performed in the absence (control sample) or in the presence (treated sample) of compounds tested as PDE7 inhibitors. The final concentration of DMSO in the test is […]. The reaction is initiated by adding enzyme and the samples are maintained at room temperature for 30 minutes. The enzymatic dilution is adjusted so as to obtain a degree of conversion of 10% to 15%. The enzymatic reaction is stopped by immersing the stoppered Eppendorf tubes in a water bath at 100° C. for 3 minutes. Blanks (reaction stopped immediately after adding the enzyme) are included in each experiment. The samples are then centrifuged at 10 000×g for 1 minute and a 10 μl aliquot portion of the supernatant is deposited 2 cm from the bottom edge of a sheet of PEI cellulose onto which 10 μg of cAMP and 10 μg of 5′-AMP have previously been deposited. To facilitate the migration and the subsequent cutting of the PEI cellulose strips containing the 5′-AMP, 18 migration paths 1 cm wide are delimited per plate by scraping the cellulose with a spatula over a width of 1 mm. The plates are developed over their entire length with a 0.30 M solution of LiCl in water by ascending chromatography. The 5′-AMP (Rf=0.20) and the cAMP (Rf=0.47) are visualized under UV light at 254 nm. The PEI cellulose bands containing the 5′-AMP are cut out and the nucleotide is extracted quantitatively into counting flasks with 2 ml of a solution containing 16 M of formic acid and 2 M of ammonium formate in water (rotary stirring for 15 minutes). After adding 10 ml of scintillation liquid (OptiPhase HiSafe 3 from Perkin-Elmer/Wallac), the radioactivity is counted using a liquid scintillation counter (Perkin-Elmer/Wallac model 1414). Each test is performed in duplicate. The radioactivity specifically associated with the 5′-AMP formed in the enzymatic reaction is obtained by subtracting the mean value of the blanks from the mean value of the controls (or of the treated samples). […]

PDE8 = PDE8 enzymatic test equivalent to that described for PDE7; assay type: biochemical; details: at 0.1 μM
Experimental: as §1
The test is performed in 1.5-ml Eppendorf tubes containing 40 mM of Tris-HCl (pH 7.5), 15 mM of MgCl2, 1 mM of EGTA, 0.5 mg/ml of bovine serum albumin, 0.25 μCi of [^3H]-cAMP (corresponding to a cAMP concentration of between 60 and 100 nM), 10 μM of rolipram and PDE7 in a final volume of 100 μl. The test is performed in the absence (control sample) or in the presence (treated sample) of compounds tested as PDE7 inhibitors. The final concentration of DMSO in the test is 2%. […] The PEI cellulose bands containing the 5′-AMP are cut out and the nucleotide is extracted quantitatively into counting flasks with 2 ml of a solution containing 16 M of formic acid and 2 M of ammonium formate in water (rotary stirring for 15 minutes). After adding 10 ml of scintillation liquid (OptiPhase HiSafe 3 from Perkin-Elmer/Wallac), the radioactivity is counted using a liquid scintillation counter (Perkin-Elmer/Wallac model 1414). […]

[1] = test system: PBMCs of normal individuals; details: cited from earlier work
CLL-PBMCs = details: PBMC of chronic lymphocytic leukaemia patients; cited from earlier work

T1 sequence (Q13946 whole entry): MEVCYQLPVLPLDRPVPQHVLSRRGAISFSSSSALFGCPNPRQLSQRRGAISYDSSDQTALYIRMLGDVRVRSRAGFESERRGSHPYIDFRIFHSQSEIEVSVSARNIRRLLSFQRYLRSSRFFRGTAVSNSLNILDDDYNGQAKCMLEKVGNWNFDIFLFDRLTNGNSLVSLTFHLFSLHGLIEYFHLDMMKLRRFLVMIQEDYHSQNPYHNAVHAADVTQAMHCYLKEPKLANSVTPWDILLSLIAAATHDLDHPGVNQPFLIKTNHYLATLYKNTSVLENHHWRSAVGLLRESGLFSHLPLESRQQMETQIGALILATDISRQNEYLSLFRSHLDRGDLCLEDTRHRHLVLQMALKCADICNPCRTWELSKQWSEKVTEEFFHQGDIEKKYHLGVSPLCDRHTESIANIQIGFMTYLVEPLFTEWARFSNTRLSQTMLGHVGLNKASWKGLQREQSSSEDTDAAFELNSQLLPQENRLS

SMILES | IC50 (Human PDE7) [nM] | further results
COc1ccc(Cn2c(=O)c3cc(CO)ccc3n(C3CCOCC3)c2=O)cc1OC [Compound 45, 3-(3,4-dimethoxybenzyl)-6-(hydroxymethyl)-1-(tetrahydro-2H-pyran-4-yl)-quinazoline-2,4(1H,3H)-dione] | 61 | –
COc1cc(Cn2c(=O)c3cc(OC(CF)CF)c(F)cc3n(C3CCOCC3)c2=O)ccc1OCc1ccccc1 [Compound 64, 3-[4-(benzyloxy)-3-methoxybenzyl]-6-[(1,3-difluoropropan-2-yl)oxy]-7-fluoro-1-(tetrahydro-2H-pyran-4-yl)quinazoline-2,4(1H,3H)-dione] | – | inhibition of PDE8 (PDE8): 59%
COc1ccc(Cn2c(=O)c3cc(OCC#N)ccc3n(C3CCS(=O)(=O)CC3)c2=O)cc1OC [Compound 14, {[3-(3,4-dimethoxybenzyl)-1-(1,1-dioxidotetrahydro-2H-thiopyran-4-yl)-2,4-dioxo-1,2,3,4-tetrahydroquinazolin-6-yl]oxy}acetonitrile] | 230 | –
Cc1ccc([N+](=O)[O-])cc1S(=O)(=O)N(C)C [BRL-50481] | – | effect on the PBMCs of normal individuals [1]: no effect; apoptosis of CLL-PBMCs (CLL-PBMCs): induces dose-dependent apoptosis

Now from value to molecule, other results behind:

IC50 (Human PDE7) [nM] | SMILES | further results
5.5 | COc1ccc(Cn2c(=O)c3cc(OCC#N)ccc3n(C3CCSCC3)c2=O)cc1OC [Compound 11, {[3-(3,4-dimethoxybenzyl)-2,4-dioxo-1-(tetrahydro-2H-thiopyran-4-yl)-1,2,3,4-tetrahydroquinazolin-6-yl]oxy}acetonitrile] | –
12 | COc1ccc(Cn2c(=O)c3cc(CF)ccc3n(C3CCOCC3)c2=O)cc1OC [Compound 60, 3-(3,4-dimethoxybenzyl)-6-(fluoromethyl)-1-(tetrahydro-2H-pyran-4-yl)-quinazoline-2,4(1H,3H)-dione] | –
16 | COc1ccc(Cn2c(=O)c3cc(OCC#N)ccc3n(C3CCOCC3)c2=O)cn1 [Compound 9, ({3-[(6-methoxypyridin-3-yl)methyl]-2,4-dioxo-1-(tetrahydro-2H-pyran-4-yl)-1,2,3,4-tetrahydroquinazolin-6-yl}oxy)acetonitrile] | –
6.1 | COc1ccc(Cn2c(=O)c3cc(OCC#N)ccc3n(C3CC[S+]([O-])CC3)c2=O)cc1OC (single isomer, unassigned; isomer 1) [Compound 17, {[3-(3,4-dimethoxybenzyl)-1-(1-oxidotetrahydro-2H-thiopyran-4-yl)-2,4-dioxo-1,2,3,4-tetrahydroquinazolin-6-yl]oxy}acetonitrile (isomer 1)] | –
8.9 | COc1ccc(Cn2c(=O)c3cc(OCC#N)ccc3n(C3CCOCC3)c2=O)cc1OC [Compound 2, {[3-(3,4-dimethoxybenzyl)-2,4-dioxo-1-(tetrahydro-2H-pyran-4-yl)-1,2,3,4-tetrahydroquinazolin-6-yl]oxy}acetonitrile] | –
